# Data reported in US20230391760A1, “HETEROCYCLIC GLP-1 AGONISTS” (Gasherbrum Bio, Inc., priority 2020, published 2023).
# Molecular target: GLP-1 Receptor (Homo sapiens, UniProt P43220)
# Test: GLP-1R agonist cAMP stimulation assay (HEK293/GLP1R/CRE-LUC cells, cAMP dynamic 2 Kit)
# Assay type: cell-based
# Settings: HEK293/CRE-Luc cell line stably expressing the GLP-1 Receptor, 30 min at 37° C.
# How it was run: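 cAMP measured by HTRF competition (d2-labelled cAMP with cryptate antibody, 1 h, room temperature, protected from light). Before that, GLP1R/CRE-Luc HEK293 cells (1000/well) were exposed for 30 min at 37 °C to half-log compound dilutions in DPBS containing IBMX 0.5 mM and BSA 0.1%.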
# Chain of GLP-1 Receptor (P43220 24-463, species assumed): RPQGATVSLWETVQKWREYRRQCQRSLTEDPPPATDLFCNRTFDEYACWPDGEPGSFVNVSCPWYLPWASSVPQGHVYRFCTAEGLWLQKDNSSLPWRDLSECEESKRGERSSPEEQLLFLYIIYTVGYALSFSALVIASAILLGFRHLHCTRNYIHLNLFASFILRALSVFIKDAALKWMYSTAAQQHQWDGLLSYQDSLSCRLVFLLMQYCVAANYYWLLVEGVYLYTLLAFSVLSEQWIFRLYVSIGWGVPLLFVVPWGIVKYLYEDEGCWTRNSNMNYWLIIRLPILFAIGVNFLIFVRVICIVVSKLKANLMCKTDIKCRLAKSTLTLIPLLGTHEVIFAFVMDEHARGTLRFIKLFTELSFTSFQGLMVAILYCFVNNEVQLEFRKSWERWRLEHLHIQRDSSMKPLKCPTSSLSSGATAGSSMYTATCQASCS
row,SMILES,EC50 [pM]
1,"CN1CCCC(C(=O)Nc2ccc3c(c2)nc(CN2CCC(c4cccc(OCc5ccc(Cl)cc5F)n4)CC2)n3C[C@@H]2CCO2)C1 (stereo partly drawn) [Compound 202a, N-{2-[(4-{6-[(4-chloro-2-fluorophenyl)methoxy]pyridin-2-yl}piperidin-1-yl)methyl]-1-{[(2S)-oxetan-2-yl]methyl}-1H-1,3-benzodiazol-5-yl}-1-methylpiperidine-3-carboxamide]",6000
2,"N#Cc1ccc(COc2cccc(C3=CCN(Cc4nc5cc(-c6nnc(C(F)(F)F)[nH]6)cnc5n4C[C@@H]4CCO4)CC3)n2)c(F)c1 [Compound 321a, 3-fluoro-4-[({1′-[(3-{[(2S)-oxetan-2-yl]methyl}-6-[5-(trifluoromethyl)-4H-1,2,4-triazol-3-yl]-3H-imidazo[4,5-b]pyridin-2-yl)methyl]-1′,2′,3′,6′-tetrahydro-[2,4′-bipyridin]-6-yl}oxy)methyl]benzonitrile]",22
3,"CC1(c2ccc(Cl)cc2F)Oc2cccc(C3CCN(Cc4nc5cc(-c6nnn[nH]6)ncc5n4C[C@@H]4CCO4)CC3)c2O1 (stereo partly drawn) [Compound 218a, 4-[2-(4-chloro-2-fluorophenyl)-2-methyl-2H-1,3-benzodioxol-4-yl]-1-[(3-{[(2S)-oxetan-2-yl]methyl}-6-(1H-1,2,3,4-tetrazol-5-yl)-3H-imidazo[4,5-c]pyridin-2-yl)methyl]piperidine]",13
4,"N#Cc1nnc(-c2cc3nc(CN4CCC(c5cccc(OCc6ccc(Cl)cc6F)n5)CC4)n(C[C@@H]4CCO4)c3nn2)[nH]1 [Compound 526a, 5-{6-[(4-{6-[(4-chloro-2-fluorophenyl)methoxy]pyridin-2-yl}piperidin-1-yl)methyl]-7-{[(2S)-oxetan-2-yl]methyl}-7H-imidazo[4,5-c]pyridazin-3-yl}-4H-1,2,4-triazole-3-carbonitrile]",17
5,"N#Cc1ccc(COc2cccc(C3CCN(Cc4nc5cc(-c6nnc(C(F)(F)F)[nH]6)ncc5n4C[C@@H]4CCO4)CC3)n2)c(F)c1 [Compound 313a, 3-fluoro-4-{[(6-{1-[(3-{[(2S)-oxetan-2-yl]methyl}-6-[5-(trifluoromethyl)-4H-1,2,4-triazol-3-yl]-3H-imidazo[4,5-c]pyridin-2-yl)methyl]piperidin-4-yl}pyridin-2-yl)oxy]methyl}benzonitrile]",12
6,"Fc1cc(Cl)ccc1COc1nc(N2CCN(Cc3nc4cc(-c5nnc(C(F)(F)F)[nH]5)cnc4n3C[C@@H]3CCO3)CC2)ncc1F [Compound 511a, 4-[(4-chloro-2-fluorophenyl)methoxy]-5-fluoro-2-{4-[(3-{[(2S)-oxetan-2-yl]methyl}-6-[5-(trifluoromethyl)-4H-1,2,4-triazol-3-yl]-3H-imidazo[4,5-b]pyridin-2-yl)methyl]piperazin-1-yl}pyrimidine]",79
7,"Fc1cc(Cl)ccc1COc1cccc(C2CCN(Cc3nc4cc(-c5nnc(C(F)(F)F)[nH]5)cnc4n3C[C@@H]3CCO3)CC2)n1 [Compound 327a, 2-[(4-chloro-2-fluorophenyl)methoxy]-6-{1-[(3-{[(2S)-oxetan-2-yl]methyl}-6-[5-(trifluoromethyl)-4H-1,2,4-triazol-3-yl]-3H-imidazo[4,5-b]pyridin-2-yl)methyl]piperidin-4-yl}pyridine]",13
8,"COCCn1c(CN2CCC(c3cccc4c3OC(C)(c3ccc(Cl)cc3F)O4)CC2)nc2cc(-c3noc(=O)[nH]3)ccc21 (stereo not shown) [Compound 230a, 3-(2-((4-(2-(4-chloro-2-fluorophenyl)-2-methylbenzo[d][1,3]dioxol-4-yl)piperidin-1-yl)methyl)-1-(2-methoxyethyl)-1H-benzo[d]imidazol-5-yl)-1,2,4-oxadiazol-5(4H)-one]",880
9,"C[C@H]1CN(c2ccc(F)c(OCc3ccc(Cl)cc3F)c2)CCN1Cc1nc2cc(-c3nnc(C(F)(F)F)[nH]3)ncc2n1C[C@@H]1CCO1 [Compound 479a, (2S)-4-{3-[(4-chloro-2-fluorophenyl)methoxy]-4-fluorophenyl}-2-methyl-1-[(3-{[(2S)-oxetan-2-yl]methyl}-6-[5-(trifluoromethyl)-4H-1,2,4-triazol-3-yl]-3H-imidazo[4,5-c]pyridin-2-yl)methyl]piperazine]",100
10,"COCCC(=O)Nc1ccc2c(c1)nc(CN1CCC(c3cccc(OCc4ccc(Cl)cc4F)n3)CC1)n2C[C@@H]1CCO1 [Compound 107a, (S)—N-(2-((4-(6-((4-chloro-2-fluorobenzyl)oxy)pyridin-2-yl)piperidin-1-yl)methyl)-1-(oxetan-2-ylmethyl)-1H-benzo[d]imidazol-5-yl)-3-methoxypropanamide]",337
11,"O=c1[nH]c(-c2cc3nc(CN4CCN(c5ccc(F)c(OCc6ccc(Cl)cc6F)c5)CC4)n(C[C@@H]4CCO4)c3cn2)no1 [Compound 439a, 3-{2-[(4-{3-[(4-chloro-2-fluorophenyl)methoxy]-4-fluorophenyl}piperazin-1-yl)methyl]-3-{[(2S)-oxetan-2-yl]methyl}-3H-imidazo[4,5-c]pyridin-6-yl}-4,5-dihydro-1,2,4-oxadiazol-5-one]",2300
12,"CC1(c2ccc(Cl)cc2F)Oc2cccc(C3CCN(Cc4nc5cc(-c6nnc(S(C)(=O)=O)[nH]6)ccc5n4C[C@@H]4CCO4)CC3)c2O1 (stereo partly drawn) [Compound 253a, 2-({4-[2-(4-chloro-2-fluorophenyl)-2-methyl-2H-1,3-benzodioxol-4-yl]piperidin-1-yl}methyl)-5-(5-methanesulfonyl-4H-1,2,4-triazol-3-yl)-1-{[(2S)-oxetan-2-yl]methyl}-1H-1,3-benzodiazole]",650
13,"O=c1[nH]c(-c2cnc3c(c2)nc(CN2CC=C(c4cccc(OCc5ccc(Cl)cc5F)c4)CC2)n3C[C@@H]2CCO2)no1 [Compound 320a, 3-{2-[(4-{3-[(4-chloro-2-fluorophenyl)methoxy]phenyl}-1,2,3,6-tetrahydropyridin-1-yl)methyl]-3-{[(2S)-oxetan-2-yl]methyl}-3H-imidazo[4,5-b]pyridin-6-yl}-4,5-dihydro-1,2,4-oxadiazol-5-one]",6800
14,"N#Cc1ccc(COc2cc(C3=CCN(Cc4nc5cc(-c6nnc(C(F)(F)F)[nH]6)ncc5n4C[C@@H]4CCO4)CC3)ccc2F)c(F)c1 [Compound 300a, 3-fluoro-4-[(2-fluoro-5-{1-[(3-{[(2S)-oxetan-2-yl]methyl}-6-[5-(trifluoromethyl)-4H-1,2,4-triazol-3-yl]-3H-imidazo[4,5-c]pyridin-2-yl)methyl]-1,2,3,6-tetrahydropyridin-4-yl}phenoxy)methyl]benzonitrile]",100
15,"COCCOc1ccc(C(=O)Nc2ccc3c(c2)nc(CN2CCC(c4cccc(OCc5ccc(Cl)cc5F)n4)CC2)n3C[C@@H]2CCO2)cn1 [Compound 177a, N-{2-[(4-{6-[(4-chloro-2-fluorophenyl)methoxy]pyridin-2-yl}piperidin-1-yl)methyl]-1-{[(2S)-oxetan-2-yl]methyl}-1H-1,3-benzodiazol-5-yl}-6-(2-methoxyethoxy)pyridine-3-carboxamide]",5900
16,"Cn1ccc(-c2ccc3c(c2)nc(CN2CCC(c4cccc(OCc5ccc(Cl)cc5F)n4)CC2)n3C[C@@H]2CCO2)n1 [Compound 124a, 2-[(4-{6-[(4-chloro-2-fluorophenyl)methoxy]pyridin-2-yl}piperidin-1-yl)methyl]-5-(1-methyl-1H-pyrazol-3-yl)-1-{[(2S)-oxetan-2-yl]methyl}-1H-1,3-benzodiazole]",780
17,"CC1(c2ccc(Cl)cc2F)Oc2ccc(F)c(C3CCN(Cc4nc5cc(-c6nnc(C(F)(F)F)[nH]6)ncc5n4C[C@@H]4CCO4)CC3)c2O1 (stereo partly drawn) [Compound 458a, 4-[2-(4-chloro-2-fluorophenyl)-5-fluoro-2-methyl-2H-1,3-benzodioxol-4-yl]-1-[(3-{[(2S)-oxetan-2-yl]methyl}-6-[5-(trifluoromethyl)-4H-1,2,4-triazol-3-yl]-3H-imidazo[4,5-c]pyridin-2-yl)methyl]piperidine]",300
18,"CC1(c2ccc(Cl)cc2)Oc2cccc(C3=CCN(Cc4nc5cc(-c6nnc(C(F)(F)F)[nH]6)ccc5n4CC4(C#N)CC4)CC3)c2O1 (stereo not shown) [Compound 413, 1-{[2-({4-[2-(4-chlorophenyl)-2-methyl-2H-1,3-benzodioxol-4-yl]-1,2,3,6-tetrahydropyridin-1-yl}methyl)-5-[5-(trifluoromethyl)-4H-1,2,4-triazol-3-yl]-1H-1,3-benzodiazol-1-yl]methyl}cyclopropane-1-carbonitrile]",600
19,"CC(=O)Nc1ccc2c(c1)nc(CN1CCC(c3cccc4c3OC(C)(c3ccc(Cl)cc3F)O4)CC1)n2C[C@@H]1CCO1 (stereo partly drawn) [Compound 240a, N-(2-((4-(2-(4-chloro-2-fluorophenyl)-2-methylbenzo[d][1,3]dioxol-4-yl)piperidin-1-yl)methyl)-1-(((S)-oxetan-2-yl)methyl)-1H-benzo[d]imidazol-5-yl)acetamide]",1100
20,"O=c1[nH]c(-c2cnc3c(c2)nc(CN2CC=C(c4cccc(OCc5ccc(Cl)cc5F)n4)CC2)n3C[C@@H]2CCO2)no1 [Compound 324a, 3-[2-({6-[(4-chloro-2-fluorophenyl)methoxy]-1′,2′,3′,6′-tetrahydro-[2,4′-bipyridin]-1′-yl}methyl)-3-{[(2S)-oxetan-2-yl]methyl}-3H-imidazo[4,5-b]pyridin-6-yl]-4,5-dihydro-1,2,4-oxadiazol-5-one]",110
21,"Cc1nnc(-c2cc3nc(CN4CCC(c5cccc6c5O[C@@](C)(c5ccc(Cl)cn5)O6)CC4)n(C[C@@H]4CCO4)c3nn2)[nH]1 [Compound 477a, 5-chloro-2-[(2S)-2-methyl-4-(1-{[3-(5-methyl-4H-1,2,4-triazol-3-yl)-7-{[(2S)-oxetan-2-yl]methyl}-7H-imidazo[4,5-c]pyridazin-6-yl]methyl}piperidin-4-yl)-2H-1,3-benzodioxol-2-yl]pyridine]",980
22,"O=C(Nc1ccc2c(c1)nc(CN1CCC(c3cccc(OCc4ccc(Cl)cc4F)n3)CC1)n2C[C@@H]1CCO1)N1CCC(F)(F)C1 [Compound 205a, N-{2-[(4-{6-[(4-chloro-2-fluorophenyl)methoxy]pyridin-2-yl}piperidin-1-yl)methyl]-1-{[(2S)-oxetan-2-yl]methyl}-1H-1,3-benzodiazol-5-yl}-3,3-difluoropyrrolidine-1-carboxamide]",2800
